According to US20060073121A1, “Spray formulation for pungency enhancement in Capsicum” (priority 2004, published 2006):

Test system: Capsicum frutescens Mill
Assay: Spray of abiotic elicitors to flowers of field-grown plants; HPLC of phenyl propanoid intermediates and capsaicinoids in harvested fruits
Assay type: in vivo
Excerpt: The seedlings of Capsicum frutescens Mill were raised in soil bed. The seeds of C. frutescens were collected from wild from BR Hills, […]. The 2 months old seedling plants were transplanted to the soil and grown under controlled conditions to avoid cross-pollination after the onset of flowering. The plants were established well 2 months after transplantation and started to flower by 90 days with proper agronomic practices with regard to irrigation, fertilizer application, weeding and care from major pests and diseases. The abiotic elicitor (Methyl Jasmonate) was purchased from Duchefa Pvt.LTD. Methyl Jasmonate stock solution was prepared and later used at different concentrations (1 mM, 2.5 mM and 5 mM) for spraying to the whole plant containing flowers, completely opened flowers, and braches containing flowers. The flowers of C. frutescens were sprayed with water, which was taken as control. […] The extracted samples were centrifuged at 4000 rpm for 10 minutes. The samples were subjected to High Performance Liquid Chromatography for quantification of phenyl proponoid intermediates and major Capsaicinoids. […] The detection was at 236 nm and flow rate was maintained at 1 ml/min. […] The reagent used was of HPLC grade. The intermediates of phenyl proponoid pathway (Phenylalanine, Cinnamic acid, Coumaric acid, Caffeic acid, Ferulic acid and Vanillylamine) and two major Capsaicinoids (Capsaicin and Dihydrocapsaicin) were purchased from Sigma Co. […] Standard deviation of samples was calculated according to Tukey's method. The seedlings of Capsicum frutescens Mill were raised in soil bed. The seeds of C. frutescens were collected from BR. Hills, […]. The 2 months old seedling plants were transplanted to the soil and grown under controlled conditions to avoid cross-pollination after the onset of flowering. The plants were established well two months after transplantation and started to flower by 90 days with proper agronomic practices with regard to irrigation, fertilizer application, weeding and care from major pests and diseases. […] USA. […] The flowers of C. frutescens were sprayed with water, which was taken as control. […] The extracted samples were centrifuged at 4000 rpm for 10 minutes. The samples were subjected to High Performance Liquid Chromatography for quantification of phenyl proponoid intermediates and major Capsaicinoids. […] The detection was at 236nm and flow rate was maintained at 1 ml/min. […] The reagent used was of HPLC grade. The intermediates of phenyl propanoid pathway (Phenylalanine, Cinnamic acid, Coumaric acid, Caffeic acid, Ferulic acid and Vanillylamine) and two major Capsaicinoids (Capsaicin and Dihydrocapsaicin) were purchased from Sigma Co. […] Standard deviation of samples was calculated according to Tukey's method.

[1] = fruits 25 days after anthesis, 1 mM sprayed
[2] = fruits 25 days after anthesis, 2.5 mM sprayed
[3] = fruits 25 days after anthesis, 5 mM sprayed
[4] = fruits 30 days after anthesis, 1 mM sprayed
[5] = fruits 30 days after anthesis, 2.5 mM sprayed
[6] = fruits 30 days after anthesis, 5 mM sprayed
[7] = fruits 35 days after anthesis, 1 mM sprayed
[8] = fruits 35 days after anthesis, 2.5 mM sprayed
[9] = fruits 35 days after anthesis, 5 mM sprayed
[10] = fruits 40 days after anthesis, 1 mM sprayed
[11] = fruits 40 days after anthesis, 2.5 mM sprayed
[12] = fruits 40 days after anthesis, 5 mM sprayed

O=C([O-])c1ccccc1O.[Na+] [Salicylic Acid sodium salt, Salicylic acid sodium salt]
Caffeic Acid level [1]: 21 ± 1.0 µM | Capsaicin level [1]: 16 ± 08 µM | Cinnamic Acid level [1]: 3.4 ± 0.9 µM | Coumaric Acid level [1]: 12.0 ± 1.2 µM | Dihydrocapsaicin level [1]: 5 ± 0.7 µM | Ferulic Acid level [1]: 31 ± 1.2 µM | Phenylalanine level [1]: 378 ± 8.2 µM | Vanillylamine level [1]: 48 ± 1.4 µM | Caffeic Acid level [2]: 25 ± 1.1 µM | Capsaicin level [2]: 17 ± 1.1 µM | Cinnamic Acid level [2]: 3.9 ± 0.7 µM | Coumaric Acid level [2]: 15 ± 1.4 µM | Dihydrocapsaicin level [2]: 5.5 ± 0.6 µM | Ferulic Acid level [2]: 32 ± 1.4 µM | Phenylalanine level [2]: 389 ± 9.2 µM | Vanillylamine level [2]: 49 ± 1.8 µM | Caffeic Acid level [3]: 28 ± 1.2 µM | Capsaicin level [3]: 16 ± 1.1 µM | Cinnamic Acid level [3]: 3.5 ± 0.6 µM | Coumaric Acid level [3]: 14 ± 1.2 µM | Dihydrocapsaicin level [3]: 6 ± 0.7 µM | Ferulic Acid level [3]: 34 ± 1.9 µM | Phenylalanine level [3]: 379 ± 10.0 µM | Vanillylamine level [3]: 47 ± 2.1 µM | Caffeic Acid level [4]: 28 ± 1.0 µM | Capsaicin level [4]: 35 ± 2.4 µM | Cinnamic Acid level [4]: 4.1 ± 1.1 µM | Coumaric Acid level [4]: 12 ± 1.1 µM | Dihydrocapsaicin level [4]: 11 ± 1.1 µM | Ferulic Acid level [4]: 35 ± 4.1 µM | Phenylalanine level [4]: 514 ± 12.2 µM | Vanillylamine level [4]: 60 ± 1.9 µM | Caffeic Acid level [5]: 30 ± 1.5 µM | Capsaicin level [5]: 44 ± 1.1 µM | Cinnamic Acid level [5]: 4.9 ± 1.5 µM | Coumaric Acid level [5]: 18 ± 1.2 µM | Dihydrocapsaicin level [5]: 12 ± 0.1 µM | Ferulic Acid level [5]: 35 ± 3.9 µM | Phenylalanine level [5]: 519 ± 8.7 µM | Vanillylamine level [5]: 67 ± 2.1 µM | Caffeic Acid level [6]: 32 ± 1.1 µM | Capsaicin level [6]: 42 ± 2.8 µM | Cinnamic Acid level [6]: 4.5 ± 1.1 µM | Coumaric Acid level [6]: 15 ± 1.2 µM | Dihydrocapsaicin level [6]: 10 ± 0.6 µM | Ferulic Acid level [6]: 38 ± 3.4 µM | Phenylalanine level [6]: 528 ± 7.4 µM | Vanillylamine level [6]: 65 ± 4.2 µM | Caffeic Acid level [7]: 29 ± 1.0 µM | Capsaicin level [7]: 38 ± 2.8 µM | Cinnamic Acid level [7]: 18 ± 1.0 µM | Coumaric Acid level [7]: 24 ± 1.2 µM | Dihydrocapsaicin level [7]: 15 ± 1.0 µM | Ferulic Acid level [7]: 64 ± 5 µM | Phenylalanine level [7]: 778 ± 5.9 µM | Vanillylamine level [7]: 68 ± 1.9 µM | Caffeic Acid level [8]: 42 ± 1.1 µM | Cinnamic Acid level [8]: 25 ± 1.1 µM | Coumaric Acid level [8]: 30 ± 1.5 µM | Dihydrocapsaicin level [8]: 16 ± 1.0 µM | Ferulic Acid level [8]: 69 ± 6.8 µM | Phenylalanine level [8]: 789 ± 11 µM | Vanillylamine level [8]: 77 ± 2.8 µM | Capsaicin level (fruits 35 days after anthesis, 2.5 mM sprayed, sodium salt): 39 ± 2.8 µM | Caffeic Acid level [9]: 32 ± 1.0 µM | Capsaicin level [9]: 36 ± 2.1 µM | Cinnamic Acid level [9]: 24 ± 1.1 µM | Coumaric Acid level [9]: 21 ± 1.1 µM | Dihydrocapsaicin level [9]: 15 ± 0.9 µM | Ferulic Acid level [9]: 65 ± 4.5 µM | Phenylalanine level [9]: 891 ± 8.9 µM | Vanillylamine level [9]: 73 ± 3.6 µM | Caffeic Acid level [10]: 29 ± 1.1 µM | Capsaicin level [10]: 31 ± 2.1 µM | Cinnamic Acid level [10]: 15 ± 1.0 µM | Coumaric Acid level [10]: 21 ± 1.1 µM | Dihydrocapsaicin level [10]: 14 ± 1.0 µM | Ferulic Acid level [10]: 62 ± 5 µM | Phenylalanine level [10]: 532 ± 8.4 µM | Vanillylamine level [10]: 64 ± 5.8 µM | Caffeic Acid level [11]: 35 ± 1.0 µM | Capsaicin level [11]: 34 ± 2.8 µM | Cinnamic Acid level [11]: 23 ± 1.1 µM | Coumaric Acid level [11]: 29 ± 1.4 µM | Dihydrocapsaicin level [11]: 15 ± 1.0 µM | Ferulic Acid level [11]: 65 ± 6 µM | Phenylalanine level [11]: 549 ± 9.2 µM | Vanillylamine level [11]: 68 ± 4.8 µM | Caffeic Acid level [12]: 34 ± 1.1 µM | Capsaicin level [12]: 38 ± 3.4 µM | Cinnamic Acid level [12]: 20 ± 1.0 µM | Coumaric Acid level [12]: 24 ± 1.5 µM | Dihydrocapsaicin level [12]: 14 ± 1.1 µM | Ferulic Acid level [12]: 67 ± 6 µM | Phenylalanine level [12]: 547 ± 7.4 µM | Vanillylamine level [12]: 65 ± 6.1 µM
